The values below come from ChEMBL document CHEMBL1151988, “Antineoplastic agents. 571. Total synthesis of bacillistatin 2” (2009).

The test system of test [1] is P388. Briefly: Cytotoxicity against mouse P388 cells. The test is classed as functional. Conditions: read-out: ED50 (the source's name).
The subject of test [2] is DU-145. The test can be described thus: Cytotoxicity against human DU145 cells. It counts as functional.

SMILES strings stand for the structures. Values after ≈ are worked out from the molar mass of the structure shown.

Turning to `CC[C@H](C)[C@@H](OC(=O)[C@@H](NC(=O)[C@H](C)OCc1ccccc1)C(C)C)C(=O)N[C@@H](C(=O)O[C@@H](C)C(=O)N[C@H](C(=O)O[C@@H](C(=O)N[C@@H](C(=O)O[C@@H](C)C(=O)N[C@H](C(=O)O[C@H](CC(C)C)C(=O)N[C@@H](C(=O)OC(C)(C)C)C(C)C)C(C)C)C(C)C)[C@@H](C)CC)C(C)C)C(C)C`, the EC50 in test [1] is 2.1 µg/mL (≈ 1.59 µM).

Consider `CC[C@H](C)[C@@H](OC(=O)[C@@H](NC(=O)[C@H](C)O)C(C)C)C(=O)N[C@@H](C(=O)O[C@@H](C)C(=O)N[C@H](C(=O)O[C@@H](C(=O)N[C@@H](C(=O)O[C@@H](C)C(=O)N[C@H](C(=O)O[C@H](CC(C)C)C(=O)N[C@@H](C(=O)OC(C)(C)C)C(C)C)C(C)C)C(C)C)[C@@H](C)CC)C(C)C)C(C)C`, for which the EC50 in test [1] was 2 µg/mL (≈ 1.63 µM).

Compound `CC[C@H](C)[C@@H](OC(=O)[C@@H](NC(=O)[C@H](C)OC(=O)[C@H](NC(=O)[C@H](OC(=O)[C@@H](NC(=O)[C@@H](C)OCc1ccccc1)C(C)C)[C@@H](C)CC)C(C)C)C(C)C)C(=O)N[C@@H](C(=O)OC(C)(C)C)C(C)C` came in with a GI50 in test [2] of 10.5 µg/mL (≈ 11.3 µM).

As a reminder, the GI50 is the concentration giving 50% growth inhibition. Higher therefore signals less potent growth inhibition.
